Experimental data reported in patent US5196510A, “Molecular recognition units” (Cytogen Corporation, priority 1990, dated 1993).
Like-named read-outs stand apart in the source and are kept apart here. Residues, ends and D or L forms follow the SMILES beside them. No end group written: not given here.

Columns and labels:
platelet aggregation = platelet aggregation (Homo sapiens, UniProt P05106+P08514); assay: Inhibition of platelet aggregation (Payton Aggregometer, ADP); format: cell-based
Protocol: The ability of the fusion peptides and of peptides comprising the binding domain of the fusion peptides to inhibit platelet aggregation was assessed as follows:
[…], human plasma was prepared by centrifugation of citrated human plasma at 900 rpm, Sorvall Rc-3, for 20 minutes at room temperature. 0.5 mL of the platelet solution was placed in the cuvette of a Payton Aggregometer, followed by 50 μL of a solution containing various concentrations, up to 200 μM, of the peptide being assayed. After 1 minute, 5 μL of 10 mM ADP in water was added. The aggregation rate was assessed by a change in the slope of the absorbance curve.

[1] = test system: thrombus induced in the jugular vein; assay: Rabbit thrombus model biodistribution and gamma camera imaging; format: in vivo; conditions: for localization to / uptake in the clot in gamma camera images (in words): thrombus in left jugular vein, Tc-99m labeled peptide (FIGS. 3-5)
Protocol: Two kg or larger white New Zealand rabbits were anesthetised and a thrombus induced in the jugular vein as follows: the jugular vein was surgically exposed, side branches tied off and a segment of about 1 inch in length was clamped off. A silk thread was introduced through the segment with both ends external. Ten units of bovine thrombin in Tris-buffered saline (TBS) pH 7.5 were added by syringe. After 10 minutes, the clamp was removed and the wound closed. After 1 hour, approximately 50 μg of a MRU conjugate which is a fusion peptide labeled with Tc-99m as described in Section 8.1, supra, was injected via the contralateral ear vein. I-125 labeled fibrinogen was subsequently injected as a control in order to assess normal blood clearance and clot localization. […] The animals were then sacrificed and the amount of Tc-99m and I-125 in various organs was assessed. A Tc-99m labeled nonspecific peptide analogue containing the RYYD sequence served as a control.

[2] = target: T1, activated platelet fibrinogen receptor (Homo sapiens, UniProt P05106+P08514); assay: Inhibition of binding of 125-I PAC-1 antibody to activated platelets; conditions: inhibition of 125-I PAC-1 binding to platelets activated with PMA or ADP, 37 degrees C, 1 hr; read-out: IC-50 (μM) Binding
T1 construct: Platelets were isolated by placing 7 ml of platelet-rich-plasma onto a 50 ml column of Sepharose 2-B; endogenous in cells
Protocol: The ability of the fusion peptides and of peptides comprising the binding domain of the peptides, specific for the activated platelet fibrinogen receptor, to inhibit the binding of PAC-1 antibody was assessed as follows:
Platelets were isolated by placing 7 ml of platelet-rich-plasma onto a 50 ml column of Sepharose 2-B equilibrated in Walshes 1% BSA buffer (1.0 g NaCl, 0.2 g KCl, 0.2 g MgCl2, 0.45 g NaH 0.9 g HEPES, 1.0 g BSA and 1.0 g dextrose in sufficient water to make exactly 1 liter), pH 7.45. The cloudiest tubes were pooled to obtain 14 ml of platelets (approximately 300,000/μl). The peptide in Walshes 1% BSA buffer and 20,000 CpM of 125-I-pAC 1 (5 μCi/μg) was added to one ml of this in a microfuge tube. Platelets were next activated with 0.1 μM phorbol myristate acetate or 10 μM ADP at 37 degrees C. After 1 hr, platelets were pelleted at top speed in a horizontal microfuge, washed gently, and the tube bottom removed with dog nail clippers and it, supernatant and wash were counted in a […]. […] Varied levels of peptide were examined and IC-50 was determined from a graph of % inhibition versus peptide concentration.

[3] = format: in vitro ADME, human; conditions: 37° C
Protocol: A representative peptide designated "Pac-2" of the sequence: […] was labeled with 125-Iodine via standard techniques (Iodobead) (see Markwell, 1982, Anal. Biochem. 125: 427-32). Stability of the labeled peptide, having either an unblocked or blocked amino terminal end, to proteolytic enzymes in plasma was assayed as follows: Labeled peptides were incubated in fresh citrated human platelet-poor plasma in sealed tubes at 37° C. Aliguots were removed at various times and assayed using reverse phase HPLC. Degradation was calculated by loss of the original radioactive peak on a reverse phase HPLC C-6 column using 0-60% acetonitrile in 20 mM Na phosphate, pH, 6.0. Inhibitors of proteolytic enzymes in plasma were used to identify responsible enzyme classes and included: EDTA (metalloenzymes), benzamidine (serine endoproteases), bestatin (aminopeptidases) and leupeptin ([…]).

T1 sequence (P08514 32-887 limits assumed): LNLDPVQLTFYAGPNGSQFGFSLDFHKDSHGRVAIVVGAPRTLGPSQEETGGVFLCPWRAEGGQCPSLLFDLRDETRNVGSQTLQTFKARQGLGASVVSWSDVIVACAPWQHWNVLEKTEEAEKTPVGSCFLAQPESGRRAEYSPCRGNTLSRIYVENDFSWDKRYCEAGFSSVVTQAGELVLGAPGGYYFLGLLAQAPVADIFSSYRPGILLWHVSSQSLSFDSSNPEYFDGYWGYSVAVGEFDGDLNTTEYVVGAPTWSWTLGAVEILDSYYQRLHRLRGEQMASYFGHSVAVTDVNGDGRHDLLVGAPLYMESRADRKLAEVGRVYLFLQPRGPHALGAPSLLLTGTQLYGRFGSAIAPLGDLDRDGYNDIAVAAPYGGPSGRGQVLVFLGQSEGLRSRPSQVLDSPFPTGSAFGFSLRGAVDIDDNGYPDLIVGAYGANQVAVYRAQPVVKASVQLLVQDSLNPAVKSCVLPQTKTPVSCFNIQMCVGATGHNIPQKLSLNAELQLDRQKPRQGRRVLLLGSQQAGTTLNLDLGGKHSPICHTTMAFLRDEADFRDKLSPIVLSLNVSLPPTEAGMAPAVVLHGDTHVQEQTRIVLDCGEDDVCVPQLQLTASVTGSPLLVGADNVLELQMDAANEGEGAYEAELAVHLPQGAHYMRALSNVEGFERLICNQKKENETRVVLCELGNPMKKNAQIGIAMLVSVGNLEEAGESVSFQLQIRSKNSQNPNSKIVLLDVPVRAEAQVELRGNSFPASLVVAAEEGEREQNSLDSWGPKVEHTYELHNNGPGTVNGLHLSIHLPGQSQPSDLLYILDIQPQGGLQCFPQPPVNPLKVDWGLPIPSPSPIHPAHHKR
T1 sequence (P08514 891-1039 partner limits assumed): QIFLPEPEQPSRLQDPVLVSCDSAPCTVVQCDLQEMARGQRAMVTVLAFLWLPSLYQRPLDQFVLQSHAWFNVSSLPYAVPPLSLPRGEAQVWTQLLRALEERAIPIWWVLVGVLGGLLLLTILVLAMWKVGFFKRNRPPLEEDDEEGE
T1 sequence (P05106 27-788): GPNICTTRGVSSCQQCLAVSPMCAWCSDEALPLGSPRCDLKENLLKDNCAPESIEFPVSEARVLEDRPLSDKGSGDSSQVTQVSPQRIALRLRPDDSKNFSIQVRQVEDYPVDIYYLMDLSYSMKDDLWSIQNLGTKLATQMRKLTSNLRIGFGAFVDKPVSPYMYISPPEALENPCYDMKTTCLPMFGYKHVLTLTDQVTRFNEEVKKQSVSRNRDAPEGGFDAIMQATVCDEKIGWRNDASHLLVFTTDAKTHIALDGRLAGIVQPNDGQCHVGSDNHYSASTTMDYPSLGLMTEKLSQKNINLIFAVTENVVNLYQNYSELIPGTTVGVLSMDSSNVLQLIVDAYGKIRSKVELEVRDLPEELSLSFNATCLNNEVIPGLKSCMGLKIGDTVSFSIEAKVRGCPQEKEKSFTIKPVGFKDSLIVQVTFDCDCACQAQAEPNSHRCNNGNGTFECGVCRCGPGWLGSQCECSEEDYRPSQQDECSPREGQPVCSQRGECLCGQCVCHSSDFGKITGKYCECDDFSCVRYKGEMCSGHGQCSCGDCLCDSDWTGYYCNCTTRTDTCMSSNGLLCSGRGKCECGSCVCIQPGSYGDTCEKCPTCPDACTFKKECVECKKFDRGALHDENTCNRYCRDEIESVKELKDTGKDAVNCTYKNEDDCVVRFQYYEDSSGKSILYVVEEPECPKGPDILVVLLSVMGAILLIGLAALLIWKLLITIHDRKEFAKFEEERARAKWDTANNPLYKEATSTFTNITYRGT
platelet aggregation, sequence (P08514 32-1039): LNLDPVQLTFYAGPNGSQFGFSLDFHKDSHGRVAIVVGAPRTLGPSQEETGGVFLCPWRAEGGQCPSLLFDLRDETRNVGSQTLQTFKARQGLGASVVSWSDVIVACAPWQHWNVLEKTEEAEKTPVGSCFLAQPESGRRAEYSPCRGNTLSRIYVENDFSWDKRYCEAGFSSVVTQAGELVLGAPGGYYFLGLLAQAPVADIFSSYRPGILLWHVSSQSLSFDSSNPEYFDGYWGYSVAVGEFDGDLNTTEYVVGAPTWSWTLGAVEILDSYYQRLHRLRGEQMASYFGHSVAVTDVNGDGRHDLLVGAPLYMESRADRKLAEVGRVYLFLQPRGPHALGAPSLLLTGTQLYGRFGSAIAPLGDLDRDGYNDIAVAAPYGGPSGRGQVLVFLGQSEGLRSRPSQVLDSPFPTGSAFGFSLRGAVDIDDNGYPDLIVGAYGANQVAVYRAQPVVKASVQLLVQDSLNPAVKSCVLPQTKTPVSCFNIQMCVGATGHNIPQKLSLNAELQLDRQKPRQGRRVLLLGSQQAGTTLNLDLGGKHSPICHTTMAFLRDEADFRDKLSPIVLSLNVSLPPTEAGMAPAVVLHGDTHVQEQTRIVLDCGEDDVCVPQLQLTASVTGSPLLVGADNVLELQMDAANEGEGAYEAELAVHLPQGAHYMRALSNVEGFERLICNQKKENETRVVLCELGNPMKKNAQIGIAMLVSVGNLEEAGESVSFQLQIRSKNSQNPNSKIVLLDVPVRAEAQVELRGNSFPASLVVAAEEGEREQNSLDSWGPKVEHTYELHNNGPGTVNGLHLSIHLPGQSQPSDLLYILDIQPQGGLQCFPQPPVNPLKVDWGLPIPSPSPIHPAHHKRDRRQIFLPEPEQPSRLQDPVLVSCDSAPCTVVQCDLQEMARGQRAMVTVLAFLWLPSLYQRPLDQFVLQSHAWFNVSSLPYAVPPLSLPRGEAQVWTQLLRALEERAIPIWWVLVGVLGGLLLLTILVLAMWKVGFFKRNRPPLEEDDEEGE
platelet aggregation, sequence (P05106 27-788): as the sequence (P05106 27-788) above

For acARRSPSYYRYYDAGPYYAMDYKCTCCA-a [PAC-3], the “inhibition of platelet aggregation and/or PAC-1 binding (in words)” value (platelet aggregation) was “lack of platelet inhibition” and the “localization to / uptake in the clot in gamma camera images (in words)” value (“localization to / uptake in the clot” below) [1] was “no uptake in the region of the clot”.
For `CC(=O)N[C@@H](CCCCN)C(=O)N[C@@H](CS)C(=O)N[C@H](C(=O)N[C@@H](CS)C(=O)N[C@@H](CS)C(=O)N[C@@H](C)C(=O)N1CCC[C@H]1C(=O)N[C@@H](CO)C(=O)N[C@@H](Cc1ccc(O)cc1)C(=O)N[C@@H](Cc1ccc(O)cc1)C(=O)N[C@@H](CCCNC(=N)N)C(=O)NCC(=O)N[C@@H](CC(=O)O)C(=O)NCC(=O)N[C@@H](C)C(=O)N1CCC[C@H]1C(=O)N[C@@H](CO)C(=O)N[C@@H](Cc1ccc(O)cc1)C(=O)N[C@@H](Cc1ccc(O)cc1)C(=O)N[C@@H](CCCNC(=N)N)C(=O)NCC(=O)N[C@@H](CC(=O)O)C(=O)NCC(=O)N[C@@H](C)C(=O)N1CCC[C@H]1C(=O)N[C@@H](CO)C(=O)N[C@@H](Cc1ccc(O)cc1)C(=O)N[C@@H](Cc1ccc(O)cc1)C(=O)N[C@@H](CCCNC(=N)N)C(=O)NCC(=O)N[C@@H](CC(=O)O)C(=O)N[C@@H](C)C(N)=O)[C@@H](C)O` [PAC-15] (Ac-KCTCCAPSYYRGDGAPSYYRGDGAPSYYRGDA-NH2), the “localization to / uptake in the clot” value [1] was “clearly localize and permit imaging of the clot”.
In the case of `CC(=O)N1CCC[C@H]1C(=O)N[C@@H](CO)C(=O)N[C@@H](Cc1ccc(O)cc1)C(=O)N[C@@H](Cc1ccc(O)cc1)C(=O)N[C@@H](CCCNC(=N)N)C(=O)NCC(=O)N[C@@H](CC(=O)O)C(=O)NCC(=O)N[C@@H](C)C(=O)N1CCC[C@H]1C(=O)N[C@@H](CO)C(=O)N[C@@H](Cc1ccc(O)cc1)C(=O)N[C@@H](Cc1ccc(O)cc1)C(=O)N[C@@H](CCCNC(=N)N)C(=O)NCC(=O)N[C@@H](CC(=O)O)C(=O)NCC(=O)N[C@@H](C)C(=O)N1CCC[C@H]1C(=O)N[C@@H](CO)C(=O)N[C@@H](Cc1ccc(O)cc1)C(=O)N[C@@H](Cc1ccc(O)cc1)C(=O)N[C@@H](CCCNC(=N)N)C(=O)NCC(=O)N[C@@H](CC(=O)O)C(=O)N[C@@H](C)C(=O)N[C@@H](CCCCN)C(=O)N[C@@H](CS)C(=O)N[C@H](C(=O)N[C@@H](CS)C(=O)N[C@@H](CS)C(=O)N[C@@H](C)C(N)=O)[C@@H](C)O` [PAC-16] (Ac-PSYYRGDGAPSYYRGDGAPSYYRGDAKCTCCA-NH2), the “localization to / uptake in the clot” value [1] is reported as “clearly localize and permit imaging of the clot”.
For ARRSPSYYRGDAGPYYAMDY, the IC50 [2] was 10 µM.
ARRSPSYYRYDAGPYYAMDY gave an IC50 [2] of 90 µM.
For acARRSPSYYRGDAGPYYAMDYKCTCCA-a [PAC-2], the “Half-Life” value ([3]; inhibitor 1 mM Bestatin, human platelet-poor plasma) was 8.5 min and the “Half-Life” value ([3]; no inhibitor, 125-I labeled peptide in citrated human platelet-poor plasma) was 2.1 min.
In the case of `CC(=O)N[C@@H](CO)C(=O)N[C@@H](Cc1ccc(O)cc1)C(=O)NCC(=O)N[C@@H](CCCNC(=N)N)C(=O)NCC(=O)N[C@@H](CC(=O)O)C(=O)N[C@H](C(=O)N[C@@H](CCCNC(=N)N)C(=O)NCC(=O)N[C@@H](CC(=O)O)C(=O)N[C@@H](Cc1ccccc1)C(=O)N[C@@H](CCCCN)C(=O)N[C@@H](CS)C(=O)N[C@H](C(=O)N[C@@H](CS)C(=O)N[C@@H](CS)C(=O)N[C@@H](C)C(N)=O)[C@@H](C)O)C(C)C` [PAC-8] (Ac-SYGRGDVRGDFKCTCCA-NH2), the “time after injection at which the clot is imaged” value ([1]; gamma camera) is reported as ≤ 18 min, the “persistence of the clot image” value ([1]; gamma camera (FIG. 3D)) is reported as ≥ 4 h and the “localization to / uptake in the clot” value [1] is reported as “localizes to and images the clot”.
